Experiments:
[1] = cited from earlier work
[2] = test system: DOP receptor dephosphorylation at T361 and S363; experiment: DOP receptor dephosphorylation after DPDPE washout with phosphatase inhibitors (Western blot, HEK293 cells); type: cell-based, human; conditions: HEK293 HA-hDOP; inhibitor preincubated 30 min, 1 µM DPDPE 10 min, citrate washout, 0-40 min

Row | SMILES | Effective dose in most behavior assays [1] [mg/kg] | Effect on DOP receptor dephosphorylation at T361 and S363 [2]
1 | CCN(CC)C(=O)c1ccc(C2=CC3(CCNCC3)Oc3cccc(O)c32)cc1 [ADL5859, N,N-diethyl-4-(5-hydroxyspiro[chromene-2,4′-piperidine]-4-yl)benzamide] | 10 | 
2 | CCN(CC)C(=O)c1ccc(C(=C2CCNCC2)c2ccccc2)cc1 [AR-M1000390, N,N-Diethyl-4-(phenylpiperidin-4-ylidenemethyl)benzamide] | 10 | 
3 | COC[C@@H]([C@H](O)[C@H](O)C(=O)NCC[C@H](C)c1nc(/C=C/C[C@@H]2O[C@]3(C[C@@H](O)[C@@H]2C)O[C@H]([C@H](C[C@H](O)[C@H](C)[C@H](O)[C@H](C)/C=C(C)/C(C)=C/C=C/C(C)=C\C#N)OC)[C@H](OP(=O)(O)O)C3(C)C)co1)N(C)C [calyculin A] |  | inhibited in a concentration-dependent manner only by calyculin A

— paper PMC7244497 (Scientific Reports, 2020)
